Laboratory results as given in US10414811B2, “Protease-resistant lipidated GLP-1 analogs” (MEDIMMUNE LIMITED, priority 2015, dated 2019).
Read-outs that look alike come from different tables or passages of the source. Numbered stars: 1 amine (or outer) side, 2 acyl side, 3 side chain; on linkers, the order of the positions; unused ones are H or OH. Square brackets hold non-standard residues; d marks the D form. Side chains are listed from the residue outwards. Peptide text beside a SMILES is read from it. * marks the point of attachment. C18 diacid = O=C(O)CCCCCCCCCCCCCCCCC(=O)*; γGlu = O=C(O)[C@H](CCC(=O)[*:2])N[*:1]; Palmitoyl = CCCCCCCCCCCCCCCC(=O)*; αMeF = C[C@](N)(Cc1ccccc1)C(=O)O; αMeK = C[C@](N)(CCCCN)C(=O)O; αMeS = C[C@](N)(CO)C(=O)O; AEEA = NCCOCCOCC(=O)O; Aib = CC(C)(N)C(=O)O

Experiments:
Format in all cases: cell-based
[1] = molecular target: T1, human GLP-1 receptor (GLP-1R) (Homo sapiens, UniProt P43220); experiment: cAMP assay, human GLP-1R cells
T1 construct: expressed in transfected cells
How it was run: (§1)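 Peptide-stimulated cAMP measured by two-step HTRF after a 30 min room-temperature incubation with receptor-expressing cells (hGLP-1R, hGIPR at 1×10^5 cells/ml; hGCGR at 2×10^5 cells/ml). Duplicate dilutions; EC50 from 4-parameter logistic fit of % Delta F.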

[2] = molecular target: T2, human glucagon receptor (GCGR) (Homo sapiens, UniProt P47871); experiment: cAMP assay, human GCGR cells; conditions: cAMP assay
T2 construct: expressed in transfected cells
How it was run: as §1

[3] = molecular target: T3, human glucose-dependent insulinotropic peptide receptor (GIPR) (Homo sapiens, UniProt P48546); experiment: cAMP assay, human GIPR cells; conditions: cAMP assay
T3 construct: expressed in transfected cells
T3 sequence (P48546 22-466): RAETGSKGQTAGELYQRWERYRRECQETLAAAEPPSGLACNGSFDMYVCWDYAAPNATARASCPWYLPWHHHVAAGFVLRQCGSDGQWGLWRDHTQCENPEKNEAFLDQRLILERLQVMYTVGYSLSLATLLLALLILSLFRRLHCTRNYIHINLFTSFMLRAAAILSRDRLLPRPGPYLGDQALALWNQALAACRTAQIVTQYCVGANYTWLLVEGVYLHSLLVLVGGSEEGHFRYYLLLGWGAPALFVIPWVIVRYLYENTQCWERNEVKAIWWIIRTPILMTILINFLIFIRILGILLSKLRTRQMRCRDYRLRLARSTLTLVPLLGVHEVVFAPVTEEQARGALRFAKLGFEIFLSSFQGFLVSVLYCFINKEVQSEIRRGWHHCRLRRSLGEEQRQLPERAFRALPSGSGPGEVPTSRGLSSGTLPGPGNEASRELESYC
How it was run: as §1

[4] = cAMP assay, first determination (n1), read-out: Primary assay EC50 GLP-1R n1
[5] = cAMP assay, second determination (n2), read-out: Primary assay EC50 GLP-1R n2
[6] = mean of n1 and n2, read-out: Mean pM GLP-1R
[7] = first determination (n1), read-out: Primary assay EC50 Gluc-R (n1)
[8] = second determination (n2), read-out: Primary assay EC50 Gluc-R (n2)
[9] = first determination (n1), read-out: Primary assay EC50 GIP-R (n1)
[10] = second determination (n2), read-out: Primary assay EC50 GIP-R (n2)
[11] = Primary assay EC50 Gluc-R (n1), first determination (n1)
[12] = read-out: Primary assay EC50 Gluc-R (n2), second determination (n2)
[13] = Primary assay EC50 GIP-R (n1), first determination (n1)
[14] = read-out: Primary assay EC50 GIP-R (n2), second determination (n2)

T1 sequence (P43220 24-463): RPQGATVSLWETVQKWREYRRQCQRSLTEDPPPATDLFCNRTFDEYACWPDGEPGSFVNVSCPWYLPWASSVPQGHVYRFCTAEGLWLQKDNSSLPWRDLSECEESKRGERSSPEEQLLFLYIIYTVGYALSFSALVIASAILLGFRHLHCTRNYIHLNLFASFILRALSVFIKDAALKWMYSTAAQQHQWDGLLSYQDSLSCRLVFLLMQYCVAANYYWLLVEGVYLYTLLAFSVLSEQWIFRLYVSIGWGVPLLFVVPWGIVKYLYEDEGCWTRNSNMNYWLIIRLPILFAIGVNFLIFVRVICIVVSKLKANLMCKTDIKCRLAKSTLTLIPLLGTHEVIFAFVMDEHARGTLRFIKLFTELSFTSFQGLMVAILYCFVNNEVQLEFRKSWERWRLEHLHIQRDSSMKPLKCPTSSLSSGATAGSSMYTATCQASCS
T2 sequence (P47871 26-477): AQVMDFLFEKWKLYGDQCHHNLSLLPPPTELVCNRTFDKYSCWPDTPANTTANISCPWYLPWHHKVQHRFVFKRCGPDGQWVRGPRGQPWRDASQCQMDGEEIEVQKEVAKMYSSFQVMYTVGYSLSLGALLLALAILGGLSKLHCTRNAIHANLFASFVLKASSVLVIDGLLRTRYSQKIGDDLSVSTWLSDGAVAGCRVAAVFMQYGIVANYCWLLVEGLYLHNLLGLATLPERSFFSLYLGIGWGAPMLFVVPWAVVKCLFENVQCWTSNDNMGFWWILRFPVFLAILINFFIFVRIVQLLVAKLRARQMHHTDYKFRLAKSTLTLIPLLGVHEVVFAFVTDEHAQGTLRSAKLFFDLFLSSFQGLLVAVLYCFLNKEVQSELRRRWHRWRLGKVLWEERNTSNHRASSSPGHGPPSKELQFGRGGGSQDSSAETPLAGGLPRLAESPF

SMILES | EC50 [1, 4] [pM] | EC50 [1, 5] [pM] | EC50 [1, 6] [pM] | EC50 [2, 7] [nM] | EC50 [2, 8] [nM] | EC50 [3, 9] [nM] | EC50 [3, 10] [nM] | EC50 [2, 11] [nM] | EC50 [2, 12] [nM] | EC50 [3, 13] [nM] | EC50 [3, 14] [nM]
CC[C@H](C)[C@H](NC(=O)[C@](C)(Cc1ccccc1)NC(=O)[C@H](CCC(=O)O)NC(=O)[C@](C)(CCCCN)NC(=O)[C@H](C)NC(=O)[C@H](C)NC(=O)[C@H](CCC(=O)O)NC(=O)CNC(=O)[C@H](CCC(=O)O)NC(=O)[C@H](CC(C)C)NC(=O)[C@](C)(Cc1ccccc1)NC(=O)[C@H](CO)NC(=O)[C@](C)(CO)NC(=O)[C@@H](NC(=O)[C@H](CC(=O)O)NC(=O)[C@H](CO)NC(=O)[C@@H](NC(=O)[C@](C)(Cc1ccccc1)NC(=O)[C@H](CO)NC(=O)CNC(=O)[C@H](CCCCNC(=O)COCCOCCNC(=O)COCCOCCNC(=O)CC[C@H](NC(=O)CCCCCCCCCCCCCCCCC(=O)O)C(=O)O)NC(=O)C(C)(C)NC(=O)[C@@H](N)Cc1c[nH]cn1)[C@@H](C)O)C(C)C)C(=O)N[C@@H](C)C(=O)N[C@@](C)(Cc1ccccc1)C(=O)N[C@H](C(=O)N[C@H](C(=O)N[C@@](C)(CCCCN)C(=O)NCC(=O)NCC(N)=O)C(C)C)C(C)C [compound 126] (H-H[Aib]K([AEEA-AEEA-γGlu-C18 diacid])GS[αMeF]TSDV[αMeS]S[αMeF]LEGEAA[αMeK]E[αMeF]IA[αMeF]VV[αMeK]GG-NH2; N-terminus assumed) | ≥ 25000 | ≥ 25400 | ≥ 25400 | ≥ 25 | ≥ 25.4 | ≥ 25 | ≥ 25.4 | – | – | – | –
CCCCCCCCCCCCCCCCCC(=O)NCCCCCC(=O)NCCCC[C@H](NC(=O)[C@H](C)NC(=O)[C@H](C)NC(=O)[C@H](CCC(=O)O)NC(=O)CNC(=O)[C@H](CCC(=O)O)NC(=O)[C@H](CC(C)C)NC(=O)[C@](C)(Cc1ccccc1)NC(=O)[C@H](CO)NC(=O)[C@](C)(CO)NC(=O)[C@@H](NC(=O)[C@H](CC(=O)O)NC(=O)[C@H](CO)NC(=O)[C@@H](NC(=O)[C@](C)(Cc1ccccc1)NC(=O)[C@H](CO)NC(=O)CNC(=O)[C@H](CCC(=O)O)NC(=O)C(C)(C)NC(=O)[C@@H](N)Cc1c[nH]cn1)[C@@H](C)O)C(C)C)C(=O)N[C@@H](CCC(=O)O)C(=O)N[C@@](C)(Cc1ccccc1)C(=O)N[C@H](C(=O)N[C@@H](C)C(=O)N[C@@](C)(Cc1ccccc1)C(=O)N[C@H](C(=O)N[C@H](C(=O)N[C@@](C)(CCCCN)C(=O)NCC(=O)NCC(N)=O)C(C)C)C(C)C)[C@@H](C)CC [compound 149] | 81 | 51 | 66.2 | ≥ 28 | ≥ 28 | ≥ 28 | ≥ 28 | – | – | – | –
CCCCCCCCCCCCCCCC(=O)N[C@@H](CCC(=O)NCCCC[C@H](NC(=O)C(C)(C)NC(=O)[C@@H](N)Cc1c[nH]cn1)C(=O)NCC(=O)N[C@@H](CO)C(=O)N[C@@](C)(Cc1ccccc1)C(=O)N[C@H](C(=O)N[C@@H](CO)C(=O)N[C@@H](CC(=O)O)C(=O)N[C@H](C(=O)N[C@@](C)(CO)C(=O)N[C@@H](CO)C(=O)N[C@@](C)(Cc1ccccc1)C(=O)N[C@@H](CC(C)C)C(=O)N[C@@H](CCC(=O)O)C(=O)NCC(=O)N[C@@H](CCC(=O)O)C(=O)N[C@@H](C)C(=O)N[C@@H](C)C(=O)N[C@@](C)(CCCCN)C(=O)N[C@@H](CCC(=O)O)C(=O)N[C@@](C)(Cc1ccccc1)C(=O)N[C@H](C(=O)N[C@@H](C)C(=O)N[C@@](C)(Cc1ccccc1)C(=O)N[C@H](C(=O)N[C@H](C(=O)N[C@@](C)(CCCCN)C(=O)NCC(=O)NCC(N)=O)C(C)C)C(C)C)[C@@H](C)CC)C(C)C)[C@@H](C)O)C(=O)O [compound 97] (H-H[Aib]K([γGlu-Palmitoyl])GS[αMeF]TSDV[αMeS]S[αMeF]LEGEAA[αMeK]E[αMeF]IA[αMeF]VV[αMeK]GG-NH2; N-terminus assumed) | ≥ 28000 | ≥ 28000 | ≥ 27800 | ≥ 28 | ≥ 28 | ≥ 28 | ≥ 28 | – | – | – | –
CC[C@H](C)[C@H](NC(=O)[C@](C)(Cc1ccccc1)NC(=O)[C@H](CCC(=O)O)NC(=O)[C@H](CCCCNC(=O)COCCOCCNC(=O)COCCOCCNC(=O)COCCOCCNC(=O)CCCCCCCCCCCOc1ccc(C(=O)O)cc1)NC(=O)[C@H](C)NC(=O)[C@H](C)NC(=O)[C@H](CCC(=O)O)NC(=O)CNC(=O)[C@H](CCC(=O)O)NC(=O)[C@H](CC(C)C)NC(=O)[C@](C)(Cc1ccccc1)NC(=O)[C@H](CO)NC(=O)[C@](C)(CO)NC(=O)[C@@H](NC(=O)[C@H](CC(=O)O)NC(=O)[C@H](CO)NC(=O)[C@@H](NC(=O)[C@](C)(Cc1ccccc1)NC(=O)[C@H](CO)NC(=O)CNC(=O)[C@H](CCC(=O)O)NC(=O)C(C)(C)NC(=O)[C@@H](N)Cc1c[nH]cn1)[C@@H](C)O)C(C)C)C(=O)N[C@@H](C)C(=O)N[C@@](C)(Cc1ccccc1)C(=O)N[C@H](C(=O)N[C@H](C(=O)N[C@@](C)(CCCCN)C(=O)NCC(=O)NCC(N)=O)C(C)C)C(C)C [compound 145] | 27 | 15 | 21 | – | – | – | – | ≥ 25 | ≥ 25 | ≥ 25 | ≥ 25
CC[C@H](C)[C@H](NC(=O)[C@H](CO)NC(=O)[C@](C)(Cc1ccccc1)NC(=O)[C@H](CC(=O)O)NC(=O)[C@H](CO)NC(=O)[C@@H](NC(=O)[C@](C)(Cc1ccccc1)NC(=O)[C@H](CO)NC(=O)CNC(=O)[C@H](CCC(=O)O)NC(=O)C(C)(C)NC(=O)[C@@H](N)Cc1ccc(O)cc1)[C@@H](C)CC)C(=O)N[C@@H](C)C(=O)N[C@@H](CCSC)C(=O)N[C@@H](CC(=O)O)C(=O)N[C@@H](CCCCN)C(=O)N[C@H](C(=O)N[C@@H](Cc1c[nH]cn1)C(=O)N[C@@H](CCC(N)=O)C(=O)N[C@@H](CCC(N)=O)C(=O)N[C@@H](CC(=O)O)C(=O)N[C@@](C)(Cc1ccccc1)C(=O)N[C@H](C(=O)N[C@@H](CC(N)=O)C(=O)N[C@@](C)(Cc1ccccc1)C(=O)N[C@@H](CC(C)C)C(=O)N[C@@H](CC(C)C)C(=O)N[C@@H](C)C(=O)N[C@@H](CCC(N)=O)C(=O)N[C@@H](CCCCN)C(N)=O)C(C)C)[C@@H](C)CC [compound 15] (H-Y[Aib]EGS[αMeF]ISD[αMeF]SIAMDKIHQQD[αMeF]VN[αMeF]LLAQK-NH2; N-terminus assumed) | 120000 | 120000 | 119000 | 120 | 120 | 0.16 | 0.079 | – | – | – | –
CC[C@H](C)[C@H](NC(=O)[C@](C)(Cc1ccccc1)NC(=O)[C@H](CCC(=O)O)NC(=O)[C@H](CCCCNC(=O)CCCCCNC(=O)CCCCCNC(=O)CCCCCNC(=O)CCCCCCCCCCCOc1ccc(C(=O)O)cc1)NC(=O)[C@H](C)NC(=O)[C@H](C)NC(=O)[C@H](CCC(=O)O)NC(=O)CNC(=O)[C@H](CCC(=O)O)NC(=O)[C@H](CC(C)C)NC(=O)[C@](C)(Cc1ccccc1)NC(=O)[C@H](CO)NC(=O)[C@](C)(CO)NC(=O)[C@@H](NC(=O)[C@H](CC(=O)O)NC(=O)[C@H](CO)NC(=O)[C@@H](NC(=O)[C@](C)(Cc1ccccc1)NC(=O)[C@H](CO)NC(=O)CNC(=O)[C@H](CCC(=O)O)NC(=O)C(C)(C)NC(=O)[C@@H](N)Cc1c[nH]cn1)[C@@H](C)O)C(C)C)C(=O)N[C@@H](C)C(=O)N[C@@](C)(Cc1ccccc1)C(=O)N[C@H](C(=O)N[C@H](C(=O)N[C@@](C)(CCCCN)C(=O)NCC(=O)NCC(N)=O)C(C)C)C(C)C [compound 142] | 12 | 7.9 | 10.1 | – | – | – | – | ≥ 26 | ≥ 26 | ≥ 26 | ≥ 26
